Series [1] deals with USH2A gene (F region and R region of exon 13). The series can be described thus: Indel efficiency of USH2A guide RNA expression cassettes by next generation sequencing (NGS). The class given is cell-based, human. Details: Indel efficiency (%) Cas12f1 ver3.0 / Indel efficiency (%) Cas12f1 ver4.0 / Indel efficiency (%) Cas12f1 ver4.1: concentration or dose not given beside the values. The conditions noted are these: for Indel efficiency (%) Cas12f1 ver3.0: scaffold Cas12f1 ver3.0 (SEQ ID NO: 315); for Indel efficiency (%) Cas12f1 ver3.0 / Indel efficiency (%) Cas12f1 ver4.0 / Indel efficiency (%) Cas12f1 ver4.1: expression cassette, NGS; for Indel efficiency (%) Cas12f1 ver4.0: scaffold Cas12f1 ver4.0 (SEQ ID NO: 316); for Indel efficiency (%) Cas12f1 ver4.1: scaffold Cas12f1 ver4.1 (SEQ ID NO: 317). An excerpt: A nucleotide sequence encoding the guide RNA designed based on the protospacer sequence selected in Example 2.1 was constructed into an expression cassette, which was immediately transfected to confirm indel efficiency by next generation sequencing (NGS) without the T7E1 assay. Here, the guide RNA was designed to include a U-rich tail sequence (for example, 5′-U4AU6-3′) at the 3′-end.
To confirm indel efficiency of the guide sequences of Cas12f1, a cassette containing the U6 promoter, scaffold sequence, guide sequence, and U-rich tail sequence (T4AT6) was amplified by PCR and used. The process was performed as follows.
The spacer was selected from the 20mer sequence followed by TTTA or TTTG, which are PAM of Cas12f1, and spacers whose sequences end with T were excluded. In addition, to minimize off-target effects, the spacers were designed using CRISPR RGEN TOOL by classifying them with less than 2 mismatches. In addition, the reverse complement sequence comprising a DR (direct repeat) and U-rich sequence was used as an R primer.
1% agarose gel was prepared, and the size marker and PCR products were added to the gel. Electrophoresis was performed to confirm the amplified size.
After confirming the amplified size, the gel was purified according to Experimental Example 9 to quantify the PCR products.
(§1) The day before transfection, HEK293T and ARPE19-HPV cells (80% confluency) cultured in 100 mm dishes were treated with trypsin to detach from the bottom of the dish. The detached cells were placed in 50 ml of pre-warmed medium (see Experimental Example 15 for its composition) and slowly dissolved with a pipette. 24-well plates were prepared according to the number of samples and repetitions, and 500 μl of cell suspension medium was added to each well (1/100 dilution). Then, incubation was performed overnight in a CO2 incubator at 37° C. until transfection.
(§2) The next day, when the cell confluency reached approximately 70% to 80%, 200 μl of the 500 μl medium per well was removed and the plates were placed in the incubator. 1.5 ml tubes were prepared according to the number of samples, and 200 μl of Opti-MEM was added to each tube. 1.5 μg of Cas12f1 DNA and 0.5 μg of gRNA (or a vector containing nucleic acids encoding Cas12f1 DNA and two gRNAs) were added to the tube containing Opti-MEM, and vortexed for 5 seconds (nucleic acid mixture). Then, the nucleic acid mixture and FuGENE HD were added at a ratio of 1:3, and reaction was allowed to occur at room temperature for 20 minutes (that is, in a case where the nucleic acid mixture was 2 μg, 6 μl of FuGENE HD was administered). The 24-well plate was taken out from the incubator, and 200 μl of the solution containing the nucleic acid mixture and FuGENE HD was gently added along the well wall. After shaking the plate sufficiently in an S shape, it was incubated in a CO2 incubator at 37° C. for 72 hours. After 72 hours, the cells were harvested and gDNA was extracted therefrom according to Experimental Example 8.
(§3) NGS analysis to confirm indel efficiency for the target was performed over a total of three PCR rounds.
The conditions for conducting the first PCR for each region are disclosed in Tables 20 to 29 below.

The next series relates to USH2A gene. The series can be described thus: Indel efficiency depending on length of the guide sequence. Format: cell-based, human. To be noted: highest value by guide length: F16 22mer, FA12 20mer, R19 24mer, R40 20mer; ver4.1 scaffold for F16, FA12, ver4.0 for R19, R40.
Text: Each guide sequence (F16, FA12, R19, R40) selected through Examples 2 and 3 was modified to have a guide sequence of 19- to 25-mer length based on the PAM adjacent to the protospacer sequence, and vectors expressing the same were produced, respectively, to compare the indel efficiency depending on a length of the guide sequence. As for the scaffold sequence, Cas12f1 ver4.1 was used for F16 and FA12, and Cas12f1 ver4.0 was used for R19 and R40, as selected in Example 2.2.
as §1, §2, §3

For “AAUAUGCCAUACAUAUUCC (expressed or natural sequence) [GUIDE-USH2A-FA20]”, in series [1], the “Indel efficiency (%) Cas12f1 ver3.0” value turned out to be 2.78%, the “Indel efficiency (%) Cas12f1 ver4.0” value came to 0.58% and the “Indel efficiency (%) Cas12f1 ver4.1” value was found to be 1.03%.
Turning to “ACAGUGAUGAAUGACUCACC (expressed or natural sequence) [GUIDE-USH2A-FA10]”, in series [1], the “Indel efficiency (%) Cas12f1 ver3.0” value came out at 4.41%, the “Indel efficiency (%) Cas12f1 ver4.0” value is on record as 1.52% and the “Indel efficiency (%) Cas12f1 ver4.1” value turned out to be 1.89%.
As for “ACUGUGUAGGAGACAAAGGA (expressed or natural sequence) [GUIDE-USH2A-R36]”, the “Indel efficiency (%) Cas12f1 ver4.0” value in series [1] worked out at 3.06%.
Regarding “AGAGUAAGAUUGGCCCCCUA (expressed or natural sequence) [GUIDE-USH2A-F05]”, in series [1], the “Indel efficiency (%) Cas12f1 ver3.0” value was found to be 0.64%, the “Indel efficiency (%) Cas12f1 ver4.0” value is 1.48% and the “Indel efficiency (%) Cas12f1 ver4.1” value was 4.83%.
Taken in the same sequence, the figures for “AUUAUACCUUCGUGAAGCUG (expressed or natural sequence) [GUIDE-USH2A-F17]” were 0.02%, 0.02% and 0.18%.
In the series on USH2A gene, “CUUAGAAAGAAGGAUGUAUA (expressed or natural sequence) [GUIDE-USH2A-R40]” returned an indel efficiency of 73.99%. Moreover, in series [1], the “Indel efficiency (%) Cas12f1 ver4.0” value stood at 21.35% and the “Indel efficiency (%) Cas12f1 ver4.1” value was 8.07%.
Take “CUUGCCAGAGAAGGAGUAGA (expressed or natural sequence) [GUIDE-USH2A-R19]”: in series [1], the “Indel efficiency (%) Cas12f1 ver3.0” value worked out at 26.08%, the “Indel efficiency (%) Cas12f1 ver4.0” value is 27.24% and the “Indel efficiency (%) Cas12f1 ver4.1” value was found to be 9.48%.
Regarding “CUUGCCAGAGAAGGAGUAGAACAA (expressed or natural sequence) [GUIDE-USH2A-R19-24 mer]”, in the series with USH2A gene, the indel efficiency is 83%.
Take “GCAUUGGUCAGUGUGUAAGA (expressed or natural sequence) [GUIDE-USH2A-R22]”: in series [1], the “Indel efficiency (%) Cas12f1 ver3.0” value is 6.32%, the “Indel efficiency (%) Cas12f1 ver4.0” value turned out to be 16.03% and the “Indel efficiency (%) Cas12f1 ver4.1” value is on record as 15.79%.
“GGGUGAGAACAUUUAAGAUC (expressed or natural sequence) [GUIDE-USH2A-F15]”: the “Indel efficiency (%) Cas12f1 ver3.0” value in series [1] was determined as 0.55%.
“UAAUGUGUACAUAUAUCAAA (expressed or natural sequence) [GUIDE-USH2A-F16]”: in series [1], the “Indel efficiency (%) Cas12f1 ver3.0” value came to 4.19%, the “Indel efficiency (%) Cas12f1 ver4.0” value is 5.87% and the “Indel efficiency (%) Cas12f1 ver4.1” value came out at 10.78%.
“UAAUGUGUACAUAUAUCAAAAC (expressed or natural sequence) [GUIDE-USH2A-F16-22 mer]” registered an indel efficiency in the series with USH2A gene of 73%.
As for “UAAUUCUACCACCAGCCACA (expressed or natural sequence) [GUIDE-USH2A-R26]”, in series [1], the “Indel efficiency (%) Cas12f1 ver4.0” value is listed as 6.41%.
On to “UAGACCCAUAUAACUCAGAG (expressed or natural sequence) [GUIDE-USH2A-R18]”, for which the “Indel efficiency (%) Cas12f1 ver3.0” value in series [1] was found to be 0.46%.
For “UAUAGAAAUACCUAGAAUUG (expressed or natural sequence) [GUIDE-USH2A-R10]”, in series [1], the “Indel efficiency (%) Cas12f1 ver3.0” value came to 1.65% and the “Indel efficiency (%) Cas12f1 ver4.0” value was 1.20%.
In the series with USH2A gene, “UCCAUAUAUAUACAUAUAUA (expressed or natural sequence) [GUIDE-USH2A-FA12]” registered an indel efficiency of 72.19%. Further, in series [1], the “Indel efficiency (%) Cas12f1 ver3.0” value amounted to 4.61% and the “Indel efficiency (%) Cas12f1 ver4.1” value amounted to 1.29%.
In the case of “UGUCUCGUCUAUCUUGAAUG (expressed or natural sequence) [GUIDE-USH2A-F02]”, in series [1], the “Indel efficiency (%) Cas12f1 ver3.0” value came to 1%, the “Indel efficiency (%) Cas12f1 ver4.0” value was 0.23% and the “Indel efficiency (%) Cas12f1 ver4.1” value stood at 0.03%.
On to “UGUUCGUAUCAUCUGCAGUA (expressed or natural sequence) [GUIDE-USH2A-F03]”, for which, in series [1], the “Indel efficiency (%) Cas12f1 ver3.0” value is 4.88%, the “Indel efficiency (%) Cas12f1 ver4.0” value is reported as 5.89% and the “Indel efficiency (%) Cas12f1 ver4.1” value was 9.89%.
On to “UUUCUUUGCCUUGUAAUACC (expressed or natural sequence) [GUIDE-USH2A-F24]”, for which, in series [1], the “Indel efficiency (%) Cas12f1 ver3.0” value turned out to be 0.04% and the “Indel efficiency (%) Cas12f1 ver4.0” value is 0.19%.

B1: MS2/MS3/MS4: engineered sgRNA, SEQ ID NO: 316 (nucleic acid)
guide: ACCGCUUCACCAAAAGCUGUCCCUUAGGGGAUUAGAACUUGAGUGAAGGUGGGCUGCUUGCAUCAGCCUAAUGUCGAGAAGUGCUUUCUUCGGAAAGUAACCCUCGAAACAAAGAAAGGAAUGCAACNNNNNNNNNNNNNNNNNNNNUUUUAUUUUUU
modifications: Engineered sgRNA with modification of MS2/MS3/MS4; misc_feature 128..147 n is a, c, g or u
Take B1: in series [1] (USH2A F and R region guide sequences), the “indel efficiency of cassette compared with Cas12f1 ver3.0 cassette” value is on record as “improved in most samples”. The “indel efficiency, scaffold versions compared” value in series [1] (target sequences located in the R region) is reported as “higher indel efficiency than ver4.1”.

B2: MS2/MS3/MS4/MS5: engineered sgRNA, SEQ ID NO: 317 (nucleic acid)
guide: ACCGCUUCACUUAGAGUGAAGGUGGGCUGCUUGCAUCAGCCUAAUGUCGAGAAGUGCUUUCUUCGGAAAGUAACCCUCGAAACAAAGAAAGGAAUGCAACNNNNNNNNNNNNNNNNNNNNUUUUAUUUUUU
modifications: Engineered sgRNA with modification of MS2/MS3/MS4/MS5; misc_feature 99..118 n is a, c, g or u
As for B2, the “indel efficiency, scaffold versions compared” value in series [1] (target sequences located in the F region) is reported as “higher indel efficiency than ver4.0”.
